From the supplement of paper PMC11061612

Columns and labels:
A673 (Ewing's Sarcoma) = assay: Bliss excess, mean over the matrix (fraction); higher = more synergy
Procedure, shortened: (§1)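 Cell lines grown in DMEM/F12 or RPMI with 10% FBS were plated in 1536-well plates and held 24 hours at 37°C, 5% CO2 before 72 hours of exposure to two-drug dose matrices, with DMSO typically at 0.2%. CellTiter-Glo 2.0 luminescence gave viability, which was converted to inhibition. Vehicle wells were set to 0 and blank wells to 1. Combination Emax is the second-highest inhibition in the matrix, and Bliss excess is the observed combination effect minus the expected EA + EB − EA·EB, where EA and EB are the single-agent effects.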

BE2-M17 (Neuroblastoma) = assay: as above
Procedure, shortened: as §1

[1] = tested on: CAL-33 (Oral Cavity Carcinoma); assay: as above
Procedure, shortened: as §1

CAL-72 (Osteosarcoma) = assay: as above
Procedure, shortened: as §1

[2] = tested on: Hs-746T (Gastric Carcinoma); assay: as above
Procedure, shortened: as §1

[3] = tested on: KMRC-20 (Kidney Carcinoma); assay: as above
Procedure, shortened: as §1

KS-1 (Glioblastoma) = assay: as above
Procedure, shortened: as §1

[4] = tested on: L-428 (Hodgkin's Lymphoma); assay: as above
Procedure, shortened: as §1

LOXIMVI (Melanoma) = assay: as above
Procedure, shortened: as §1

[5] = tested on: LS-123 (Colorectal Carcinoma); assay: as above
Procedure, shortened: as §1

[6] = tested on: NCI-H1568 (Lung Adenocarcinoma); assay: as above
Procedure, shortened: as §1

NCI-H2052 (Mesothelioma) = assay: as above
Procedure, shortened: as §1

[7] = tested on: NCI-H524 (Small Cell Lung Carcinoma); assay: as above
Procedure, shortened: as §1

[8] = tested on: NUGC-4 (Gastric Carcinoma); assay: as above
Procedure, shortened: as §1

[9] = tested on: SW1710 (Bladder Carcinoma); assay: as above
Procedure, shortened: as §1

[10] = tested on: TGBC1TKB (Biliary Tract Carcinoma); assay: as above
Procedure, shortened: as §1

[11] = tested on: ALL-PO (B-Lymphoblastic Leukemia); assay: combination Emax (second highest fraction inhibited in the dose matrix, 72 h); higher = more inhibition; extreme values may be limits of the assay
Procedure, shortened: as §1

[12] = tested on: Hs-746T (Gastric Carcinoma); assay: as above
Procedure, shortened: as §1

[13] = tested on: L-428 (Hodgkin's Lymphoma); assay: as above
Procedure, shortened: as §1

NCI-H2722 (Mesothelioma) = assay: as above
Procedure, shortened: as §1
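For Bliss excess, mean over the matrix in this document: after 72 h of two-drug dosing.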

SMILES | Bliss excess (A673 (Ewing's Sarcoma)) | Bliss excess (BE2-M17 (Neuroblastoma)) | Bliss excess [1] | Bliss excess (CAL-72 (Osteosarcoma)) | Bliss excess [2] | Bliss excess [3] | Bliss excess (KS-1 (Glioblastoma)) | Bliss excess [4] | Bliss excess (LOXIMVI (Melanoma)) | Bliss excess [5] | Bliss excess [6] | Bliss excess (NCI-H2052 (Mesothelioma)) | Bliss excess [7] | Bliss excess [8] | Bliss excess [9] | Bliss excess [10] | combination Emax [11] | combination Emax [12] | combination Emax [13] | combination Emax (NCI-H2722 (Mesothelioma))
COc1cc2c(cc1OCCCCCOc1cc3c(cc1OC)C(=O)N1C=C(C)C[C@H]1C=N3)N=C[C@@H]1CC(C)=CN1C2=O [SG3199] + O=C(c1cc(Cc2n[nH]c(=O)c3ccccc23)ccc1F)N1CCN(C(=O)C2CC2)CC1 [Olaparib] (first compound max 0.001 µM, 7x7, partner max 10 µM) | -0.0556 | 0.0474 | -0.0198 | -0.0565 | -0.0292 | -0.0192 | -0.0482 | -0.0207 | -0.0599 | -0.0211 | -0.077 | -0.0319 | -0.0181 | -0.0134 | -0.0334 | -0.0438 | 0.646 | 0.292 | 0.0689 | 0.134
Cc1cc2ncnn2cc1Nc1ncc2c(n1)n(C1CCOCC1)c(=O)n2C [AZD7648] + C[C@@H]1COCCN1C2=NC(=NC(=C2)C3(CC3)[S@](=N)(=O)C)C4=C5C=CNC5=NC=C4 [AZD6738] (first compound max 10 µM, 7x7, partner max 10 µM) | -0.0295 | -0.0073 | 0.0013 | 0.0292 | -0.0119 | -0.0207 | -0.0011 | -0.0223 | -0.0019 | -0.0021 | 0.0383 | 0.0186 | 0.035 | -0.0673 | 0.0067 | -0.002 | 0.925 | 0.677 | 0.794 | 0.347
Cc1cc2ncnn2cc1Nc1ncc2c(n1)n(C1CCOCC1)c(=O)n2C [AZD7648] + O=C(c1cc(Cc2n[nH]c(=O)c3ccccc23)ccc1F)N1CCN(C(=O)C2CC2)CC1 [Olaparib] (first compound max 10 µM, 7x7, partner max 10 µM) | -0.015 | 0.0754 | -0.0237 | -0.0093 | -0.0732 | -0.0594 | -0.0355 | -0.019 | -0.0577 | -0.0221 | -0.0307 | -0.0521 | -0.0698 | -0.049 | -0.0377 | -0.0649 | 0.608 | 0.337 | 0.172 | 0.225
C[C@@H](c1ccc2nccn2c1)n1nnc2ncc(-c3cnn(C)c3)nc21 [Savolitinib] + CC1(C)CCC(CN2CCN(c3ccc(C(=O)NS(=O)(=O)c4ccc(NCC5CCOCC5)c([N+](=O)[O-])c4)c(Oc4cnc5[nH]ccc5c4)c3)CC2)=C(c2ccc(Cl)cc2)C1 [Venetoclax] (first compound max 1 µM, 7x7, partner max 1 µM) | -0.0673 | -0.0656 | -0.0211 | -0.02 | -0.0105 | -0.0524 | -0.0476 | -0.0284 | -0.0355 | -0.0794 | -0.0575 | -0.0549 | -0.0066 | -0.0817 | -0.0561 | -0.0122 | 0.337 | 0.664 | 0.117 | 0.159
COc1cc2ncnc(Nc3ccc(F)c(Cl)c3)c2cc1OCCCN1CCOCC1 [Gefitinib] + CC(C)n1c(=O)n(C)c2cnc3cc(F)c(-c4ccc(OCCCN5CCCCC5)nc4)cc3c21 [AZD1390] (first compound max 10 µM, 7x7, partner max 0.3 µM) | -0.047 | -0.049 | -0.0366 | -0.0555 | -0.0759 | -0.056 | -0.0599 | -0.0645 | -0.0384 | -0.0622 | -0.0412 | -0.0544 | -0.0431 | -0.0491 | -0.041 | -0.0264 | 0.59 | 0.0968 | 0.353 | 0.0368
Cc1cc2ncnn2cc1Nc1ncc2c(n1)n(C1CCOCC1)c(=O)n2C [AZD7648] + C=CCn1c(=O)c2cnc(Nc3ccc(N4CCN(C)CC4)cc3)nc2n1-c1cccc(C(C)(C)O)n1 [AZD1775] (first compound max 10 µM, partner max 1 µM) | -0.0306 | -0.0837 | 0.0238 | -0.0194 | -0.0827 | -0.0164 | 0.0297 | 0.0144 | -0.0123 | -0.079 | -0.0763 | -0.0039 | -0.0254 | -0.0417 | 0.0692 | -0.0362 | 0.966 | 0.652 | 0.884 | 0.327
